Usually Kd stands for the concentration at which binding is half-saturated.

For assay [1], the target named is T1, PfENT1WT (Plasmodium falciparum, UniProt Q8IDM6).
T1 construct: 10xHis (N); made in house; host or cells: Sf9 insect cells (baculovirus)
Briefly: biochemical. It is filed as binding. Here is the method:
(§1) For the in vitro binding assay, Sf9 cells were solubilized in lysis buffer containing 2% (w/v) n-dodecyl-β-D-maltopyranoside (DDM, Anatrace) and protease inhibitor cocktail (0.8 μM aprotinin, 2 μM pepstatin, and 5 μg/ml leupeptin) at 4 °C for 2 h. The soluble supernatant was collected via centrifugation and incubated with Ni-NTA resin (QIAGEN) at 4 °C for 1 h. The resin was washed and eluted using lysis buffer containing 0.05% (w/v) DDM and 30 mM/300 mM imidazole. The protein was further purified by size-exclusion chromatography (Superdex 200 Increase 10/300; GE Healthcare) in buffer containing 25 mM MES (pH 6.0), 150 mM NaCl, and 0.05% (w/v) DDM. The peak fractions were pooled and concentrated to 10~50 μM for the nucleoside-binding assay.
(§2) The binding affinity between wild-type and mutant PfENT1 with nucleosides and GSK4 was measured using a Micro-Cal ITC200 (Malvern). All proteins were prepared in 25 mM MES (pH 6.0), 150 mM NaCl, and 0.05% (w/v) DDM. Nucleosides (5~10 mM) and GSK4 (100-200 μM) dissolved in the same buffer were titrated against 20–50 μM PfENT1 proteins at 25 °C. PEAQ-ITC analysis software (MicroCal) was employed to analyze the data. All titrations were repeated three times.

Assay [2] has as its target T2, PfENT1 mutant W53A (Plasmodium falciparum, UniProt Q8IDM6, W53A).
T2 construct: 10xHis (N); made in house; host or cells: Sf9 insect cells (baculovirus)
Put plainly: ITC binding to PfENT1 mutant W53A. Here is the method: as §1, §2

The target in assay [3] is T3, PfENT1 mutant R291A (Plasmodium falciparum, UniProt Q8IDM6, R291A).
T3 construct: 10xHis (N); made in house; host or cells: Sf9 insect cells (baculovirus)
Briefly: ITC binding to PfENT1 mutant R291A. Here is the method:
as §1, §2

For assay [4], the target named is T4, PfENT1 (Plasmodium falciparum, UniProt Q8IDM6).
T4 construct: expressed in transfected cells; host or cells: S. cerevisiae BY4741, FUI1 deleted, PfENT1 knock-in under the TEF1 promoter
Put plainly: cell-based. The following applies: for uptake of inosine: time course, PfENT1 knock-in yeast. The class given is cell-based. The protocol:
The S. cerevisiae strain (ATCC, #201388) BY4741 (MATa his3Δ1 leu2Δ0 met15Δ0 ura3Δ0) was used as the starting yeast strain. Yeast strains were cultured in YPD medium (20 g/L peptone, 10 g/L yeast extract, and 20 g/L dextrose). The antibiotic G418 was supplemented at a concentration of 250 μg/mL to select strains carrying the KanMX marker. E. coli DH5α was used for subcloning.
(§3) Codon-optimized PfENT1 (for expression in yeast) was synthesized by Sangon Biotech. The carboxyl terminus of PfENT1 was HA-tagged through PCR. The TEF1p promoter and PGK1t terminator were amplified from BY4741 genomic DNA. Overlap PCR was applied to generate the gene overexpression cassette of PfENT1 (TEF1p promoter-PfENT1-PGK1t terminator). The two 600-bp homologous arms corresponding to the upstream and downstream regions of the FUI1 gene were amplified from BY4741 genomic DNA. The gene cassette of the ‘TEF1p promoter-PfENT1-PGK1t terminator’ together with the two homologous arms was cloned into the PUC19 plasmid through Gibson assembly, generating the final plasmid PUC19: PfENT1. PfENT1 mutations were generated using point mutation and verified by Sanger sequencing. The spacer targeting the FUI1 gene (5ʹ-[…]-3ʹ) was cloned into the pCas-BsaI plasmid to generate the pCas-FUI1 plasmid as described previously.
To obtain fui1Δ and PfENT1 (or its mutations) overexpression in the S. cerevisiae strain, 1 μg pCas-FUI1 plasmid and 15 μg PUC19:PfENT1 were transformed into yeast using the LiAc/ssDNA/PEG method. Then, the strains were plated on a YPD plate supplemented with G418. Clones were screened using PCR and finally verified through Sanger sequencing.
Cells were grown overnight in YPD medium to mid-log phase and harvested by centrifugation at 3000 × g for 5 min. Cells were washed three times in 2% glucose. The yeast pellets were resuspended in uptake assay buffer (25 mM Tris-HCl 8.0,150 mM NaCl, 2% glucose) to a final concentration of 2 × 10^8 cells mL^–1. The uptake assay was initiated by combining 100 μL of prewarmed (30 °C) cells and 100 μL uptake assay buffer mixture: 25 mM Tris-HCl 8.0, 150 mM NaCl, 2% glucose, 200 nM [^3H] Inosine ([8-^3H] inosine; 20 Ci mmol^–1, American Radiolabeled Chemicals). Cells were removed onto a membrane filter at the appropriate times to generate the time course. After washing by vacuum filtration with 2 ml ice-cold 2% glucose, the radioactivity retained on the filter was incubated with 1 mL of ULTIMA GOLD scintillation fluid (Perkin Elmer, 77-15311). Counts were measured using a liquid scintillation analyzer (Perkin Elmer, Tri-Carb 5110TR).
For competition assays, the indicated nucleosides and nucleobase were added into the external uptake assay buffer (25 mM Tris-HCl 8.0, 150 mM NaCl, and 2% glucose) to a final concentration of 5 mM, and the transport reaction was stopped at 30 min. The reading of the competition assays was normalized against the one without a competitor, which had the uptake of radiolabeled inosine set as 100%. All uptake assays were performed at 30 °C and repeated three times. Error bars represent the s.d. The final result was analyzed in the GraphPad Prism 8 software ([…]).

Assay [5] deals with T5, PfENT1 Q135A (Plasmodium falciparum, UniProt Q8IDM6, Q135A).
T5 construct: expressed in transfected cells; host or cells: S. cerevisiae BY4741, FUI1 deleted, PfENT1 mutant knock-in under the TEF1 promoter
Put plainly: Inosine uptake assay, yeast expressing PfENT1 Q135A. The class given is cell-based. The settings on record: Fig. 3d, construct Q135A.
Excerpt: as §3, with “previously. […]” for “previously.”
(§4) Cells were grown overnight in YPD medium to mid-log phase and harvested by centrifugation at 3000 × g for 5 min. […] After washing by vacuum filtration with 2 ml ice-cold 2% glucose, the radioactivity retained on the filter was incubated with 1 mL of ULTIMA GOLD scintillation fluid (Perkin Elmer, 77-15311). Counts were measured using a liquid scintillation analyzer (Perkin Elmer, Tri-Carb 5110TR). […]

The target of assay [6] is T6, PfENT1 R291A (Plasmodium falciparum, UniProt Q8IDM6, R291A).
T6 construct: expressed in transfected cells; host or cells: S. cerevisiae BY4741, FUI1 deleted, PfENT1 mutant knock-in under the TEF1 promoter
Briefly: Inosine uptake assay, yeast expressing PfENT1 R291A. It is filed as cell-based. The settings on record: Fig. 3d, construct R291A.
Excerpt: as §3, with “previously. […]” for “previously.”
as §4

Values joined by “and” are separate entries in the source; they are usually repeats but may differ in a detail not shown here. Identical values can stand only once. Like-named read-outs stand apart in the source and are kept apart here.

T3 sequence (Q8IDM6 whole entry R291A): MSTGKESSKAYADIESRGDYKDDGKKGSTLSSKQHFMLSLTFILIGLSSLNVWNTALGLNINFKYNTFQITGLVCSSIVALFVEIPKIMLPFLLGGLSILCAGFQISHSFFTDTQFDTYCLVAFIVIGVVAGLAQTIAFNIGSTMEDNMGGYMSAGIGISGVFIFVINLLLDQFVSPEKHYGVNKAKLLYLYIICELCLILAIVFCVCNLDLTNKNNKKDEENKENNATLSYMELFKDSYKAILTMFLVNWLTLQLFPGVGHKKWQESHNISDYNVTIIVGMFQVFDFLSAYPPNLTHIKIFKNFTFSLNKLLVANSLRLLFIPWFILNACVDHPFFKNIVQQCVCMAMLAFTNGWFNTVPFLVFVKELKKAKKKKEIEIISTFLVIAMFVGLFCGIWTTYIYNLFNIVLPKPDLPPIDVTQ
T2 sequence (Q8IDM6 whole entry W53A): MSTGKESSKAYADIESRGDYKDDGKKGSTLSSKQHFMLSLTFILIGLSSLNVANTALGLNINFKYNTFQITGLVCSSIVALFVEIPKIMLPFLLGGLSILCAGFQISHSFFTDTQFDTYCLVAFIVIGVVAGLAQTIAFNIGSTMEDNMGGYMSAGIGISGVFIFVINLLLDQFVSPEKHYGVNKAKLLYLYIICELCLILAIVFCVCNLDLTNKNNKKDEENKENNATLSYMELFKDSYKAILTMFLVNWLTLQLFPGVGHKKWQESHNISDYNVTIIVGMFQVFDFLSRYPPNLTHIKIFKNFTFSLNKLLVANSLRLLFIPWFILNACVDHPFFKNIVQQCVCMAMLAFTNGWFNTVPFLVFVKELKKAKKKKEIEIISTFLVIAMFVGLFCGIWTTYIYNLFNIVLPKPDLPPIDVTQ
T4 sequence (Q8IDM6 whole entry): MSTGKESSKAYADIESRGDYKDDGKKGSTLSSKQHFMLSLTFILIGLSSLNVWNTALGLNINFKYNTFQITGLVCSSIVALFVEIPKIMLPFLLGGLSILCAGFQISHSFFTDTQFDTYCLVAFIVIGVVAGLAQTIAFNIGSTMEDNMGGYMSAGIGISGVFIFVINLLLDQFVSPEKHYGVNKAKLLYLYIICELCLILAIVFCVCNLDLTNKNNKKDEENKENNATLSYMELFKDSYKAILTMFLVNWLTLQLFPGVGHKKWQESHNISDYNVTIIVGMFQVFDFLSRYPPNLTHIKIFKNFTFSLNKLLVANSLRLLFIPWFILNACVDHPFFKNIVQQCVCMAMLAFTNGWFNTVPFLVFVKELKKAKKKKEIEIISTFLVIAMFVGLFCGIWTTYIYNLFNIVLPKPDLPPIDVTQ
T1 sequence (Q8IDM6 whole entry): as above
T6 sequence (Q8IDM6 whole entry R291A): as the sequence (Q8IDM6 whole entry R291A) above
T5 sequence (Q8IDM6 whole entry Q135A): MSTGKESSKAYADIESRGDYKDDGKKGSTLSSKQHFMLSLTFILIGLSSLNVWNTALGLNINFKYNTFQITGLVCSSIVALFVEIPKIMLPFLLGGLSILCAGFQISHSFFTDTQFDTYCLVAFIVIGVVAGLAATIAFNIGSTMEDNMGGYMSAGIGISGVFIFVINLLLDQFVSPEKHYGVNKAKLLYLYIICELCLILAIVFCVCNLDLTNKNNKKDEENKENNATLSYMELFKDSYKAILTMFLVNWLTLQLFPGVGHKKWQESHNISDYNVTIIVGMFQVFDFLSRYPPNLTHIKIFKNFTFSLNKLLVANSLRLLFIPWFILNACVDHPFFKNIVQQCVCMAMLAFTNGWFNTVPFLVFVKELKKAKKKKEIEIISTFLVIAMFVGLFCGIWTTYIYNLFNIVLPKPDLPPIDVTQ

On to `OC[C@H]1O[C@@H](n2cnc3c(O)ncnc32)[C@H](O)[C@@H]1O` [Inosine, inosine], for which the dissociation constant Kd is 64.7 µM in assay [1] (Kd, Mean and Mean ± SD, source data Figure 1a); 52.3 µM and 64.2 µM and 77.7 µM in assay [1] (Kd, N=3 (individual experiments), source data Figure 1a); 64.7 ± 12.7 µM in assay [1] (binding affinity (Kd), ITC, 25 °C, pH 6.0, mean ± SD (n = 3), Fig. 1a and text); 64.7 ± 12.7 µM in assay [1] (read-out: Kd, Mean and Mean ± SD, source data Figure 1a); 1830 µM in assay [2] (Kd, Mean and Mean ± SD, source data Figure 3c, construct W53A); 1900 µM and 1940 µM and 1650 µM in assay [2] (Kd, N=3 (individual experiments), source data Figure 3c, construct W53A). In addition, the Kd is 1830 ± 157 µM in assay [2] (binding affinity (Kd), ITC, Fig. 3c, mutant W53A, mean ± SD (n = 3)); 46.7 µM in assay [3] (Kd, Mean and Mean ± SD, source data Figure 3c, construct R291A); 53 µM and 56 µM and 31 µM in assay [3] (Kd, N=3 (individual experiments), source data Figure 3c, construct R291A); 46.7 ± 13.6 µM in assay [3] (binding affinity (Kd), ITC, Fig. 3c, mutant R291A, mean ± SD (n = 3)). Besides, in assay [2] (inosine binding, W53A versus wild type), the “weaker binding than the wild type” value is recorded as 30 fold. In addition, the “binding affinity (Kd)” value in assay [3] (ITC, Fig. 3c, mutant R291A, mean ± SD (n = 3)) was “maintains inosine binding”. Also, in assay [4] (0.5 h, read-out: Uptake of [3H]-inosine (Percentage of PfENT1 WT), competition by nonradioactive nucleoside/nucleobase 5 mM, 30 min, 30 °C, uptake without competitor set as 100%, Fig. 1c), the remaining activity at 5000 µM is 11%. The “Uptake of [3H]-inosine (Percentage of PfENT1 WT)” value in assay [4] (competition by nonradioactive nucleoside/nucleobase 5 mM, 30 min, 30 °C, uptake without competitor set as 100%, Fig. 1c) is “abolished”; in assay [5] it was “abolished the transport activity”; in assay [6] it was “lost the transport activity”. For the same compound, the uptake of inosine in assay [4] (time 1 (min), 3 independent experiments) is 0.8242 fmol per million cells and 1.048 fmol per million cells and 1.269 fmol per million cells; in assay [4] (time 5 (min)), 1.492 fmol per million cells and 1.522 fmol per million cells and 1.615 fmol per million cells; in assay [4] (time 10 (min)), 2.864 fmol per million cells and 2.823 fmol per million cells and 2.628 fmol per million cells; in assay [4] (time 20 (min)), 4.048 fmol per million cells and 4.1747 fmol per million cells and 4.441 fmol per million cells; in assay [4] (time 30 (min)) it was 5.946 fmol per million cells and 6.16 fmol per million cells and 6.198 fmol per million cells; in assay [4] (time 45 (min)), 10.3307 fmol per million cells and 9.87 fmol per million cells and 9.474 fmol per million cells. The uptake of inosine in assay [4] (time 60 (min)) was 11.051 fmol per million cells and 11.1951 fmol per million cells and 11.2042 fmol per million cells.
